Measured values: patent US20260138976A1 (Hoffmann-La Roche Inc., priority 2022, published 2026)

Assays:
[1] = target: T1, DGKζ (hDGKzeta(1-928)-N-His) (Homo sapiens, UniProt Q13574); test: In vitro DGK inhibition assay, DGKzeta ADP Glo (in house); assay type: biochemical; conditions: 2 nM DGKζ, 50 μM ATP, 125 uM DLG in liposomes, 1 hour reaction
T1 construct: hDGKzeta(1-928)-N-His; His (N); made in house; host or cells: Sf21 insect cells (baculovirus)
Method in brief: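 Full-length His-tagged human DGKα (4 nM) or DGKζ (2 nM), expressed in Sf21 cells, phosphorylated 125 µM DLG in PS/PC liposomes with ATP at 25 µM (α) or 50 µM (ζ) for 1 h. ADP was measured by ADP-Glo luminescence. Compounds were tested as 11-point 1:3 series in 2% DMSO.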

[2] = tested on: primary human T-cells; test: IL2 secretion measurements (24 h, CD3-stimulated T-cells, PBS counter screen); assay type: cell-based; conditions: for Emax IL2 (% activation): CD3 condition, normalised to DMSO (neutral) and 20 μM reference compound A1 = 100%; for EC50: Homo sapiens, T-cell, CD3-stimulated primary human T-cells, IL2 secretion, fitted sigmoidal curve, read-out: Tcell IL2 CD3 EC50
Method in brief: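 Expanded primary human T-cells (100k/well) were plated on anti-CD3-coated or PBS-only plates with compound in a 5–6 point dose response (top 20 or 10 μM final, 3.333-fold, 0.2% DMSO). IL-2 in 24 h supernatants was quantified by ProQuantum immunoassay or ELISA. Values were normalized to DMSO and 20 μM reference compound A1 (100%), giving EC50 and Emax.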

T1 sequence (Q13574 whole entry): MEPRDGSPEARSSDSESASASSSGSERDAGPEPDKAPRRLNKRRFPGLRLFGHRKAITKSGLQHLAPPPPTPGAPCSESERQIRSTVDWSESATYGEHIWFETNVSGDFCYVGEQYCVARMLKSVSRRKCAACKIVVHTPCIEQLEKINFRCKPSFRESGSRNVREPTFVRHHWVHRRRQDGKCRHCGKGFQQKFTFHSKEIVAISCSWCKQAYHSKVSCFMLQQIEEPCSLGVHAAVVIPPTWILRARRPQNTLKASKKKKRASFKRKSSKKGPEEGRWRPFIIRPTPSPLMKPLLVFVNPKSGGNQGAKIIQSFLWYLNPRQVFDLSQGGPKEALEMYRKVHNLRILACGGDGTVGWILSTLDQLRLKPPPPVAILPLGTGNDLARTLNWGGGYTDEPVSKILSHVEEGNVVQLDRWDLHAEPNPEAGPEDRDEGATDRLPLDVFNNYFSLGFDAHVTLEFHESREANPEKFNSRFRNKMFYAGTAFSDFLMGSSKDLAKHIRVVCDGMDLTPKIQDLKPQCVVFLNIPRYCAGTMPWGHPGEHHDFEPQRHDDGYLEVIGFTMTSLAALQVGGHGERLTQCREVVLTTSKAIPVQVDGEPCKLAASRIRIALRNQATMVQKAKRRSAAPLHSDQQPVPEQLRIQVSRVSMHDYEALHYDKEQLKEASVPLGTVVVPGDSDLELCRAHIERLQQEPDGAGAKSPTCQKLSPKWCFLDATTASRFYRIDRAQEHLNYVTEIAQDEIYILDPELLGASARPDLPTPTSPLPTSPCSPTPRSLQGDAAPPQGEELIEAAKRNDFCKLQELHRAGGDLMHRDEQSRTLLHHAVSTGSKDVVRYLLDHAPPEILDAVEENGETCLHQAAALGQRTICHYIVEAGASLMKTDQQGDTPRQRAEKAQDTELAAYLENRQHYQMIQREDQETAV

SMILES	IC50 [1] [µM]	Emax IL2 (% activation) [2] [% activation]	EC50 [2] [µM]
CC(C)(C#N)c1nnc(-c2ccc3c(c2)N(Cc2ccc(-c4ccnc(C(F)(F)F)c4)cc2)C(=O)[C@@H](N)CS3(=O)=O)o1 [Example 111, 2-[5-[(3R)-3-amino-1,1,4-trioxo-5-[[4-[2-(trifluoromethyl)-4-pyridyl]phenyl]methyl]-2,3-dihydro-1λ^6,5-benzothiazepin-7-yl]-1,3,4-oxadiazol-2-yl]-2-methyl-propanenitrile]	1.13	151	1.86
Cc1nc(-c2ccc(CN3C(=O)[C@@H](N)CS(=O)(=O)c4ccc(-c5nnc(C(C)(C)C#N)o5)cc43)cc2)ccc1C(F)(F)F [Example 114]	3.72	48	1.05
CC(C)(C#N)c1nnc(-c2ccc3c(c2)N(Cc2ccc(-c4cnn(C(F)(F)F)c4)cc2)C(=O)[C@@H](N)CS3(=O)=O)o1 [Example 115, 2-[5-[(3R)-3-amino-1,1,4-trioxo-5-[[4-[1-(trifluoromethyl)pyrazol-4-yl]phenyl]methyl]-2,3-dihydro-1λ^6,5-benzothiazepin-7-yl]-1,3,4-oxadiazol-2-yl]-2-methyl-propanenitrile]	0.803	112	0.507
CC(C)(C#N)c1nnc(-c2ccc3c(c2)N(Cc2ccc(-c4ccc(OC(F)(F)F)cc4)nc2)C(=O)[C@@H](N)CS3(=O)=O)o1 [Example 119, 2-[5-[(3R)-3-amino-1,1,4-trioxo-5-[[6-[4-(trifluoromethoxy)phenyl]-3-pyridyl]methyl]-2,3-dihydro-1λ^6,5-benzothiazepin-7-yl]-1,3,4-oxadiazol-2-yl]-2-methyl-propanenitrile]	1.63	102	1.28
CC(C)(C#N)c1nnc(-c2ccc3c(c2)N(Cc2ccc(-c4cc(OC(F)(F)F)ccn4)cc2)C(=O)[C@@H](N)CS3(=O)=O)o1 [Example 126, 2-[5-[(3R)-3-amino-1,1,4-trioxo-5-[[4-[4-(trifluoromethoxy)-2-pyridyl]phenyl]methyl]-2,3-dihydro-1λ^6,5-benzothiazepin-7-yl]-1,3,4-oxadiazol-2-yl]-2-methyl-propanenitrile]	0.541	254	2.11
CC(C)(C#N)c1nnc(-c2ccc3c(c2)N(Cc2ccc(-c4ccc(OC(F)(F)C(F)(F)F)cn4)cc2)C(=O)[C@@H](N)CS3(=O)=O)o1 [Example 129, 2-[5-[(3R)-3-amino-1,1,4-trioxo-5-[[4-[5-(1,1,2,2,2-pentafluoroethoxy)-2-pyridyl]phenyl]methyl]-2,3-dihydro-1λ^6,5-benzothiazepin-7-yl]-1,3,4-oxadiazol-2-yl]-2-methyl-propanenitrile]	0.948	187	0.552
N[C@H]1CS(=O)(=O)c2ccc(-c3nnc(C4(C(F)F)CNC4)o3)cc2N(Cc2ccc(-c3ccc(C(F)(F)F)cc3)cc2)C1=O [Example 152]	12.2	19	> 10
C[C@@](N)(c1nnc(-c2ccc3c(c2)N(Cc2ccc(-c4ccc(OC(F)(F)F)cn4)cc2)C(=O)[C@@H](N)CS3(=O)=O)o1)C(F)(F)F [Example 153, (3R)-3-amino-7-[5-[(1R)-1-amino-2,2,2-trifluoro-1-methyl-ethyl]-1,3,4-oxadiazol-2-yl]-1,1-dioxo-5-[[4-[5-(trifluoromethoxy)-2-pyridyl]phenyl]methyl]-2,3-dihydro-1λ^6,5-benzothiazepin-4-one]	2.25	193	0.245

More lines, in order of falling IC50 [1], values ahead:

IC50 [1] [µM]	SMILES	Emax IL2 (% activation) [2] [% activation]	EC50 [2] [µM]
2.45	CC(C)(C#N)c1nnc(-c2ccc3c(c2)N(Cc2ccc(-c4ncc(C(F)(F)F)cn4)cc2)C(=O)[C@@H](N)CS3(=O)=O)o1 [Example 127, 2-[5-[(3R)-3-amino-1,1,4-trioxo-5-[[4-[5-(trifluoromethyl)pyrimidin-2-yl]phenyl]methyl]-2,3-dihydro-1λ^6,5-benzothiazepin-7-yl]-1,3,4-oxadiazol-2-yl]-2-methyl-propanenitrile]	112	4.56
2.02	CC(C)(C#N)c1nnc(-c2ccc3c(c2)N(Cc2ccc(-n4nnc(C(F)(F)F)n4)cc2)C(=O)[C@@H](N)CS3(=O)=O)o1 [Example 120, 2-[5-[(3R)-3-amino-1,1,4-trioxo-5-[[4-[5-(trifluoromethyl)tetrazol-2-yl]phenyl]methyl]-2,3-dihydro-1λ^6,5-benzothiazepin-7-yl]-1,3,4-oxadiazol-2-yl]-2-methyl-propanenitrile]	135	1.33
1.13	CC(C)(C#N)c1nnc(-c2ccc3c(c2)N(Cc2ccc(-c4ccc(C(F)(F)F)nc4)cc2)C(=O)[C@@H](N)CS3(=O)=O)o1 [Example 113, 2-[5-[(3R)-3-amino-1,1,4-trioxo-5-[[4-[6-(trifluoromethyl)-3-pyridyl]phenyl]methyl]-2,3-dihydro-1λ^6,5-benzothiazepin-7-yl]-1,3,4-oxadiazol-2-yl]-2-methyl-propanenitrile]	85	1.32
1.01	CC(C)(C#N)c1nnc(-c2ccc3c(c2)N(Cc2ccc(-c4ncc(OC(F)(F)F)cn4)cc2)C(=O)[C@@H](N)CS3(=O)=O)o1 [Example 117]	114	0.587
0.939	CC(C)(C#N)c1nnc(-c2ccc3c(c2)N(Cc2ccc(-c4ccc(OC(F)F)cn4)cc2)C(=O)[C@@H](N)CS3(=O)=O)o1 [Example 108, 2-[5-[(3R)-3-amino-5-[[4-[5-(difluoromethoxy)-2-pyridyl]phenyl]methyl]-1,1,4-trioxo-2,3-dihydro-1λ^6,5-benzothiazepin-7-yl]-1,3,4-oxadiazol-2-yl]-2-methyl-propanenitrile]	245	1.56
0.93	COc1ccc(-c2ccc(CN3C(=O)[C@@H](N)CS(=O)(=O)c4ccc(-c5nnc(C(C)(C)C#N)o5)cc43)cc2)nc1 [Example 125]	97	4.28
0.918	CC(C)(C#N)c1nnc(-c2ccc3c(c2)N(Cc2ccc(-c4cc(C(F)(F)F)ccn4)cc2)C(=O)[C@@H](N)CS3(=O)=O)o1 [Example 116, 2-[5-[(3R)-3-amino-1,1,4-trioxo-5-[[4-[4-(trifluoromethyl)-2-pyridyl]phenyl]methyl]-2,3-dihydro-1λ^6,5-benzothiazepin-7-yl]-1,3,4-oxadiazol-2-yl]-2-methyl-propanenitrile]	87	1.03
0.893	CC(C)(C#N)c1nnc(-c2ccc3c(c2)N(Cc2ccc(-c4nc(C(F)(F)F)co4)cc2)C(=O)[C@@H](N)CS3(=O)=O)o1 [Example 123, 2-[5-[(3R)-3-amino-1,1,4-trioxo-5-[[4-[4-(trifluoromethyl)oxazol-2-yl]phenyl]methyl]-2,3-dihydro-1λ^6,5-benzothiazepin-7-yl]-1,3,4-oxadiazol-2-yl]-2-methyl-propanenitrile]	144	1.25
0.864	CC(F)(F)c1ccc(-c2ccc(CN3C(=O)[C@@H](N)CS(=O)(=O)c4ccc(-c5nnc(C(C)(C)C#N)o5)cc43)cc2)nc1 [Example 109, 2-[5-[(3R)-3-amino-5-[[4-[5-(1,1-difluoroethyl)-2-pyridyl]phenyl]methyl]-1,1,4-trioxo-2,3-dihydro-1λ^6,5-benzothiazepin-7-yl]-1,3,4-oxadiazol-2-yl]-2-methyl-propanenitrile]	360	3.4
0.814	CC(C)(C#N)c1nnc(-c2ccc3c(c2)N(Cc2ccc(-c4ccc(C5CC5)cn4)cc2)C(=O)[C@@H](N)CS3(=O)=O)o1 [Example 118, 2-[5-[(3R)-3-amino-5-[[4-(5-cyclopropyl-2-pyridyl)phenyl]methyl]-1,1,4-trioxo-2,3-dihydro-1λ^6,5-benzothiazepin-7-yl]-1,3,4-oxadiazol-2-yl]-2-methyl-propanenitrile]	172	4.07
0.507	CC(C)(C#N)c1nnc(-c2ccc3c(c2)N(Cc2ccc(-c4cc(OC(F)F)ccn4)cc2)C(=O)[C@@H](N)CS3(=O)=O)o1 [Example 110, 2-[5-[(3R)-3-amino-5-[[4-[4-(difluoromethoxy)-2-pyridyl]phenyl]methyl]-1,1,4-trioxo-2,3-dihydro-1λ^6,5-benzothiazepin-7-yl]-1,3,4-oxadiazol-2-yl]-2-methyl-propanenitrile]	85	4.11
0.473	CC(C)(C#N)c1nnc(-c2ccc3c(c2)N(Cc2ccc(-c4cnc(OC(F)(F)F)cn4)cc2)C(=O)[C@@H](N)CS3(=O)=O)o1 [Example 112]	139	0.832
